Test results: paper PMC3961306, “Comparison of the Cancer Gene Targeting and Biochemical Selectivities of All Targeted Kinase Inhibitors Approved for Clinical Use” (PLoS ONE, 2014)
Read-outs that look alike come from different tables or passages of the source.

Key:
[1] = system: forty-four human cancer cell lines; experiment: Cell proliferation assay (ATPlite, 72 hours) in the 44 cell line Oncolines panel; type: cell-based; conditions: Homo sapiens
[2] = molecular target: panel of more than 300 wild-type and mutant kinases (313 kinase panel) (Homo sapiens, UniProt P00519); experiment: Kinase profiling in a biochemical assay panel (mobility shift assays and ELISA), %-inhibition at 1 μM; selectivity entropy; conditions: 1 µM
[3] = molecular target: panel of more than 300 wild-type and mutant kinases (313 kinase panel) (Homo sapiens, UniProt P15056); experiment: as above
[4] = molecular target: panel of more than 300 wild-type and mutant kinases (313 kinase panel) (Homo sapiens, UniProt P15056, V600E); experiment: as above
[5] = molecular target: panel of more than 300 wild-type and mutant kinases (313 kinase panel) (Homo sapiens, UniProt P35968); experiment: as above; conditions: 1 µM
[6] = molecular target: panel of more than 300 wild-type and mutant kinases (313 kinase panel) (Homo sapiens, UniProt P00533, L858R); experiment: as above; conditions: 1 µM
[7] = molecular target: panel of more than 300 wild-type and mutant kinases (313 kinase panel) (Homo sapiens, UniProt P00533); experiment: as above; conditions: 1 µM
[8] = molecular target: panel of more than 300 wild-type and mutant kinases (313 kinase panel) (Homo sapiens, UniProt Q9UM73, R1275Q); experiment: as above; conditions: kinase ALK(R1275Q); 1 μM compound
[9] = molecular target: panel of more than 300 wild-type and mutant kinases (313 kinase panel) (Homo sapiens, UniProt P00533, L858R/T790M); experiment: as above; conditions: 1 µM
[10] = molecular target: panel of more than 300 wild-type and mutant kinases (313 kinase panel) (Homo sapiens, UniProt P11362, V561M); experiment: as above; conditions: kinase FGFR1(V561M); compound at 1 μM
[11] = molecular target: panel of more than 300 wild-type and mutant kinases (313 kinase panel) (Homo sapiens, UniProt P07947, T348I); experiment: as above; conditions: kinase YES(T348I); compound at 1 μM
[12] = molecular target: panel of more than 300 wild-type and mutant kinases (313 kinase panel) (Homo sapiens, UniProt P09619); experiment: as above; conditions: kinase PDGFRβ; 1 μM
[13] = 4-4 cell, read-out: cell panel IC50, J82
[14] = 4-4 cell, read-out: cell panel IC50, PA-1
[15] = 4-4 cell, read-out: cell panel IC50, SJCRH30
[16] = 4-4 cell, read-out: cell panel IC50, SR
[17] = 769-P, read-out: cell panel IC50, 769-P
[18] = 786-0, read-out: cell panel IC50, 786-0
[19] = A 172, read-out: cell panel IC50, A-172
[20] = A204, read-out: cell panel IC50, A-204
[21] = A498, read-out: cell panel IC50, A-498
[22] = A-375, read-out: cell panel IC50, A375
[23] = AN3-CA, read-out: cell panel IC50, AN3 CA
[24] = AU565, read-out: cell panel IC50, AU-565
[25] = BT-20, read-out: cell panel IC50, BT-20
[26] = BXPC-3, read-out: cell panel IC50, BxPC-3
[27] = C-33-A, read-out: cell panel IC50, C-33 A
[28] = CAL-27, read-out: cell panel IC50, CAL 27
[29] = CCRF-CEM, read-out: cell panel IC50, CCRF-CEM
[30] = DLD-1, read-out: cell panel IC50, DLD-1
[31] = FaDu, read-out: cell panel IC50, FaDu
[32] = HCT-15, read-out: cell panel IC50, HCT-15
[33] = HCT-116, read-out: cell panel IC50, HCT-116
[34] = Hs-578T, read-out: cell panel IC50, Hs 578T
[35] = Jurkat E6.1, read-out: cell panel IC50, Jurkat E6.1
[36] = K562, read-out: cell panel IC50, K-562
[37] = LS174T, read-out: cell panel IC50, LS 174T
[38] = LoVo, read-out: cell panel IC50, LoVo
[39] = MG-63, read-out: cell panel IC50, MG-63
[40] = MOLT-4, read-out: cell panel IC50, MOLT-4
[41] = MeWo, read-out: cell panel IC50, MeWo
[42] = NCI-H82, read-out: cell panel IC50, NCI-H82
[43] = NCI-H460, read-out: cell panel IC50, NCI-H460
[44] = OVCAR-3, read-out: cell panel IC50, OVCAR-3
[45] = RPMI-7951, read-out: cell panel IC50, RPMI-7951
[46] = SHP77, read-out: cell panel IC50, SHP-77
[47] = SK-N-AS, read-out: cell panel IC50, SK-N-AS
[48] = SW48, read-out: cell panel IC50, SW48
[49] = SW480, read-out: cell panel IC50, SW480
[50] = SW-620, read-out: cell panel IC50, SW620
[51] = U2OS, read-out: cell panel IC50, U-2 OS
[52] = U-87 MG, 72 h, read-out: IC50 in cell proliferation assay (table S5 cellpanel data)

SMILES: C#Cc1cccc(Nc2ncnc3cc(OCCOC)c(OCCOC)cc23)c1 [erlotinib]
- IC50 [1, 13]: 4540 nM
- IC50 [1, 14]: 4070 nM
- IC50 [1, 15]: > 31600 nM
- IC50 [1, 16]: 4230 nM
- IC50 [1, 17]: 20200 nM
- IC50 [1, 18]: 6130 nM
- IC50 [1, 19]: > 31600 nM
- IC50 [1, 20]: 5160 nM
- IC50 [1, 21]: 4970 nM
- IC50 [1, 22]: 5050 nM
- IC50 ([1]; ACHN, read-out: cell panel IC50, ACHN): 1370 nM
- IC50 [1, 23]: 4290 nM
- IC50 [1, 24]: 2740 nM
- IC50 [1, 25]: > 31600 nM
- IC50 [1, 26]: 4200 nM
- IC50 [1, 27]: 865 nM
- IC50 [1, 28]: 256 nM
- IC50 [1, 29]: > 31600 nM
- IC50 [1, 30]: 3870 nM
- IC50 [1, 31]: 1160 nM
- IC50 [1, 32]: 6310 nM
- IC50 [1, 33]: 8120 nM
- IC50 [1, 34]: 7120 nM
- IC50 [1, 35]: 22600 nM
- IC50 [1, 36]: 7050 nM
- IC50 [1, 37]: 3270 nM
- IC50 [1, 38]: 2240 nM
- IC50 [1, 39]: 13300 nM
- IC50 [1, 40]: 6340 nM
- IC50 [1, 41]: 9020 nM
- IC50 [1, 42]: 20100 nM
- IC50 [1, 43]: 5530 nM
- IC50 [1, 44]: 5460 nM
- IC50 [1, 45]: > 31600 nM
- IC50 [1, 46]: > 31600 nM
- IC50 [1, 47]: 5840 nM
- IC50 [1, 48]: > 31600 nM
- IC50 [1, 49]: > 31600 nM
- IC50 [1, 50]: 6410 nM
- IC50 [1, 51]: > 31600 nM
- IC50 [1, 52]: > 31600 nM
- %-inhibition, ABL [2]: 64%
- %-inhibition, BRAF ([3]; 1 µM): 14%
- %-inhibition, BRAF(V600E) ([4]; 1 µM): 8%
- %-inhibition of KDR [5]: 74%

SMILES: Cc1ccc(C(=O)Nc2ccc(CN3CCN(C)CC3)c(C(F)(F)F)c2)cc1C#Cc1cnc2cccnn12 [ponatinib]
- IC50 [1, 13]: 1530 nM
- IC50 [1, 14]: 814 nM
- IC50 [1, 15]: 1110 nM
- IC50 [1, 16]: 836 nM
- IC50 [1, 17]: 1800 nM
- IC50 [1, 18]: 1870 nM
- IC50 [1, 19]: 626 nM
- IC50 [1, 20]: 92 nM
- IC50 [1, 21]: 1320 nM
- IC50 ([1]; A549, read-out: cell panel IC50, A-549): 1150 nM
- IC50 [1, 22]: 1140 nM
- IC50 ([1]; A-427, read-out: cell panel IC50, A-427): 352 nM
- IC50 [1, 23]: 124 nM
- IC50 [1, 24]: 1420 nM
- IC50 [1, 25]: 5120 nM
- IC50 ([1]; BT-549, read-out: cell panel IC50, BT-549): 1850 nM
- IC50 [1, 26]: 817 nM
- IC50 [1, 27]: 1000 nM
- IC50 [1, 28]: 1720 nM
- IC50 [1, 29]: 2250 nM
- IC50 [1, 30]: 1130 nM
- IC50 [1, 31]: 1110 nM
- IC50 [1, 32]: 913 nM
- IC50 [1, 33]: 1210 nM
- IC50 [1, 34]: 1180 nM
- IC50 [1, 35]: 403 nM
- IC50 [1, 36]: 6.5 nM
- IC50 [1, 37]: 2050 nM
- IC50 [1, 38]: 380 nM
- IC50 [1, 39]: 2480 nM
- IC50 [1, 40]: 977 nM
- IC50 [1, 41]: 2220 nM
- IC50 [1, 42]: 1100 nM
- IC50 [1, 43]: 1430 nM
- IC50 [1, 44]: 2950 nM
- IC50 [1, 45]: 1150 nM
- IC50 [1, 46]: 6490 nM
- IC50 [1, 47]: 1080 nM
- IC50 [1, 48]: 1550 nM
- IC50 [1, 49]: 2170 nM
- IC50 [1, 50]: 799 nM
- IC50 [1, 51]: 1120 nM
- IC50 [1, 52]: 3100 nM
- %-inhibition of EGFR(L858R) [6]: 95%
- %-inhibition, BRAF ([3]; kinase BRAF, 1 μM compound): 89%
- %-inhibition, BRAF(V600E) ([4]; kinase BRAF(V600E), 1 μM compound): 84%
- %-inhibition of EGFR [7]: 97%
- %-inhibition, ALK(R1275Q) [8]: 45%
- %-inhibition of EGFR(T790M/L858R) [9]: 49%
- %-inhibition of FGFR1(V561M) [10]: 98%
- %-inhibition of YES(T348I) [11]: 96%
- %-inhibition of PDGFRβ [12]: 102%
